Laboratory results: article PMC10065799, “High-throughput profiling of sequence recognition by tyrosine kinases and SH2 domains using bacterial peptide display” (eLife, 2023)

Biological target: T1, c-Abl kinase domain (Mus musculus, UniProt P00520)
T1 sequence (P00520 242-493 limits assumed): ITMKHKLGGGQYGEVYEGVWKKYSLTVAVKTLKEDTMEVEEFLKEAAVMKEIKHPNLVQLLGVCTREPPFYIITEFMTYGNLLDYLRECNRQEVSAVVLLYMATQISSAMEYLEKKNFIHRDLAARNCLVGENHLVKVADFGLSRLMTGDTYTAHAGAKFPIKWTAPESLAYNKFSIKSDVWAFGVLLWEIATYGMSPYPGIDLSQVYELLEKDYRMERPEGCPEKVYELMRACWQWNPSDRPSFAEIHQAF
Assay: pTyr-Var library bacterial peptide display kinase screen (enrichment scores)
Type: biochemical
Settings: variant versus reference peptide

Sequence: DRVALYVAREG [AACS_Y117_I118V]
- c-Abl difference (mean log2 variant - mean log2 reference): -0.3292
